Reference: patent US20250186336A1, “METHOD OF TREATING WET AGE-RELATED MACULAR DEGENERATION” (EYEPOINT PHARMACEUTICALS, INC., priority 2022, published 2025)
Like-named read-outs stand apart in the source and are kept apart here.

Key:
[1] = Intravitreal pharmacokinetic study of vorolanib insert (Example 5A); type: in vivo, Male Dutch Belted Rabbits; settings: for vitreous level of vorolanib at steady state: intravitreal; for AUC(0-t): read-out: vitreous AUClast
Description: An Intravitreal Pharmacokinetic Study was performed in Male Dutch Belted Rabbits. The objective of this study was to characterize the plasma and ocular tissue pharmacokinetics of a vorolanib insert following bilateral intravitreal injection on Day 1. Animals were evaluated up to 24 months following placement of the intravitreal insert.
The low dose group (1) received 3 inserts per eye for a total dose of 630 μg per eye. The high dose group (2) animals received 6 inserts per eye given in 2 separate injections (3 inserts per injection) for a total dose of 1,260 μg per eye.
Prior to each scheduled sacrifice point, one whole blood sample was collected from a targeted 2 animals per group via puncture of a marginal ear vein. Samples were tested for levels of vorolanib and its metabolite. Two animals per group were euthanized on day 1 at 6, 12, 24 and 48 hours, on days 7 and 14, and at 1, 2, 4, 6, 8, 16 and 24 months.

[2] = Solubility of vorolanib in water; type: physicochemical
Excerpt: Vorolanib has the chemical designation (S,Z)—N-(1-(Dimethylcarbamoyl) pyrrolidin-3-yl)-5-((5-fluoro-2-oxoindolin-3-ylidene)methyl)-2,4-dimethyl-1H-pyrrole-3-carboxamide. Synonyms include the term “X-82”. The molecular formula is C23H26FN5O3. […]

[3] = 18 month intravitreal toxicity and plasma pharmacokinetics study (Example 6); type: in vivo
Description: An 18 month intravitreal toxicity study for the insert was also performed in 80 Dutch Belted rabbits (40 male and 40 female). Animals were evaluated for a period of 6 and 18 months following placement of intravitreal inserts. The objective was to characterize the ocular toxicity, plasma pharmacokinetics and biodegradation of a vorolanib insert following bilateral intravitreal injection.
The tables below describe the group assignments and dose levels. For the toxicology groups, animals were sacrificed at 6 months and 18 months. For the plasma pharmacokinetic analysis, blood samples were collected at Days 1, 3, and 7 and then 1, 2, 3, 4, 5, 6, 12, 14, 16 and 18 Months.
The placebo group (1) animals received two placebo inserts by injection in each eye. The low dose group (2) animals received 2 inserts in each eye. The mid dose group (3) animals received 3 inserts in each eye given in 2 separate injections. The high dose group (4) animals received 4 inserts in each eye given in 2 separate injections (2 inserts/injection). The highest dose group (5) animals received 6 inserts in each eye given in 2 separate injections (3 inserts/injection).
At each scheduled timepoint, whole blood was collected via puncture of a marginal ear vein. Samples were analyzed for clinical pathology and plasma pharmacokinetics. Animals were euthanized according to the schedules described above. […]

[4] = Intravitreal pharmacokinetic study of vorolanib insert (Example 5B); type: in vivo, Dutch Belted Rabbits
Description: Another Intravitreal Pharmacokinetic Study was performed in Dutch Belted Rabbits. The objective of this study was to evaluate the plasma and ocular pharmacokinetics of a vorolanib insert following bilateral intravitreal injection in rabbit eyes. Animals were evaluated up to 12 months following placement of the intravitreal insert.
Dutch Belted rabbits were administered vorolanib inserts in each eye by intravitreal injection. Group 1 eyes received 1 insert containing 643 μg of vorolanib, and Group 2 eyes received 2 inserts containing 900 μg total. Blood samples were collected at 2, 7, 14, and 28 days and then once monthly for months 2-12. Inserts were recovered at 2, 7, and 14 days and then at 1, 2, 4, 6, 8, 10, and 12 months. Residual vorolanib levels were determined in all explants using high-performance liquid chromatography. The vorolanib release rate was estimated based on residual levels in the explants. Plasma and ocular tissues were separated and analyzed for vorolanib and its metabolite using liquid chromatography mass spectrometry.

[5] = test system: Laser-Induced Choroidal Neovascularization (CNV); experiment: Swine model of laser-induced choroidal neovascularization, safety and efficacy (Example 7); type: in vivo
Description: Safety and efficacy of a vorolanib insert were evaluated in a Swine (Mini-pig) Model of Laser-Induced Choroidal Neovascularization (CNV). The primary objective of this study was to evaluate the long-term safety and inhibition of vascular permeability and neovascularization in a laser-induced model of choroidal neovascularization (CNV) using a vorolanib insert in swine.
On the day of lasering (Groups 1-4) animals were treated with an 810 nm diode laser delivered through an indirect ophthalmoscope. Approximately 6 single laser spots were placed between retinal veins. Both eyes underwent laser treatment according to the schedule in the table above.
On the day of intravitreal injections animals were anesthetized and the eyes were aseptically prepared. […] Animals were allowed to recover normally from the procedure. The pigs were given a topical drop of antibiotic ophthalmic solution 4-6 hours later, and then BID for 2 additional days with at least 6 hours between doses. Animals were dosed on either Day 0 immediately following laser CNV induction or 7 days prior to laser CNV induction according to the schedule in the table above. […]
At time points indicated by the experimental design table, following final data collections, animals were euthanized. Histology was evaluated for eyes from Groups 5-6.

[6] = male, Dutch Belted, rabbit, vitreous humor, topical or ocular, 630 ug, through day 180
[7] = male, Dutch Belted, rabbit, vitreous humor, topical or ocular, 1260 ug, through day 180

In the case of Cc1[nH]c(/C=C2\C(=O)Nc3ccc(F)cc32)c(C)c1C(=O)N[C@H]1CCN(C(=O)N(C)C)C1 [vorolanib, (S,Z)—N-(1-(Dimethylcarbamoyl)pyrrolidin-3-yl)-5-((5-fluoro-2-oxoindolin-3-ylidene)methyl)-2,4-dimethyl-1H-pyrrole-3-carboxamide], the “change in plasma levels” value ([1]; after 99 days) is reported as “No apparent change”, the “vorolanib levels in the vitreous and the retina/choroid relative to IC50 for VEGFR” value ([1]; at the time points tested) is reported as “remained significantly above the IC50 for VEGFR” and the “retina/choroid level at steady state” value ([1]; high dose 1,260 μg per eye) is reported as 89 ng/g. For the same compound, the “vitreous level of vorolanib at steady state” value ([1]; high dose 1,260 μg per eye (6 inserts)) was 97 ng/mL, the “steady state reached by” value ([1]; in vivo) was at most 105 days and the “burst period of drug release” value ([1]; in vivo, before steady state) was 90 days. The “retina/choroid level at steady state” value ([1]; low dose 630 μg per eye) was 49 ng/g, the “vitreous level of vorolanib at steady state” value ([1]; low dose 630 μg per eye (3 inserts)) was 56 ng/mL and the Cmax [1, 6] was 232 ng/mL. It also gave a Tmax [1, 6] of 14 days, an AUC(0-t) [1, 6] of 316 µg·h/mL and a Cmax [1, 7] of 1700 ng/mL. For the same compound, the AUC(0-t) [1, 7] was 1580 µg·h/mL, the “vorolanib plasma levels in the PK study” value ([1]; plasma) was “low pg/mL range” and the solubility [2] was under 10 µg/mL. The vorolanib plasma levels ([3]; plasma) was “low pg/mL range”, the adverse findings ([3]; up to 6 inserts per eye) was “No adverse findings” and the concentration at 10 months ([4]; Dutch Belted, rabbit, in vivo) was under 10 ng/mL. For the same compound, the “drop in mean vorolanib concentration in ocular tissues and plasma” value ([4]; Dutch Belted, rabbit, in vivo) was 85%-99%, the “vorolanib exposure rank order” value ([4]; ocular tissues and plasma) was “choroid=retina=vitreous>aqueous humor>plasma” and the “concentrations in target ocular tissues (choroid and retina) relative to IC50 for VEGFR2” value ([4]; through 8 months) was “above the IC50 for VEGFR2”.
For “aflibercept: VEGF inhibitor (Regeneron), intravitreal injection, comparator in the swine CNV model”, the “reduction in Corrected Total Lesion Fluorescence (CTLF) value” ([5]; Day 7 to Day 28, aflibercept 2 mg, 50 μL/eye IVT, Day 0) was “largest reduction in CTLF values” and the “efficacy in the model” value ([5]; aflibercept 2 mg) was “normal amounts of efficacy”.
